What all share (format): physicochemical
A short description of series [1]: Solubility in organic/aqueous solvents.
The nature of series [2]: Gravimetric Vapor Sorption (GVS). From the text:
The sample is hygroscopic.

Series [3] in a line: Thermogravimetric Analysis (TGA) decomposition. From the text:
The combined DSC/TGA results for (R)-2-(2-hydroxyphenylamino)-5,5-dimethyl-4,5-dihydrothiazole-4-carboxylic acid mono-hydrochloride is provided in FIG. 7. […] An amorphous form of Compound 1 can be made by, for example, lyophilizing crystalline Compound 1 as described in Example 4 herein.

Counter-ions that a name gives are not always drawn.

As for `CC1(C)SC(Nc2ccccc2O)=N[C@@H]1C(=O)O` [Compound 1, (R)-2-(2-hydroxyphenylamino)-5,5-dimethyl-4,5-dihydrothiazole-4-carboxylic acid mono-hydrochloride], the solubility entry is “sparingly soluble” in series [1] (10% water/tetrahydrofuran); “sparingly soluble” in series [1] (10% water:iso-propyl acetate); “less than sparingly soluble” in series [1] (acetone); “sparingly soluble” in series [1] (ethanol); “less than sparingly soluble” in series [1] (ethyl acetate); “sparingly soluble” in series [1] (iso-propanol). The solubility result in series [1] (iso-propyl acetate) was “less than sparingly soluble”; in series [1] (methanol), “freely soluble”; in series [1] (n-heptane), “less than sparingly soluble”; in series [1] (tert-butyl alcohol), “less than sparingly soluble”; in series [1] (tert-butyl alcohol:water (1:1)) it was “freely soluble”; in series [1] (tert-butyl methyl ether), “less than sparingly soluble”. Further, the values for the solubility entry in series [1] (tetrahydrofuran), in series [1] (toluene) and in series [1] (water) were “less than sparingly soluble”, “less than sparingly soluble” and “sparingly soluble”, respectively. The hygroscopicity result in series [2] (GVS) is on record as “hygroscopic”. This compound also registered a GVS uptake in series [2] (between 0% and 90% RH) of 6%. Also, the “TGA start of decomposition (total 5% mass loss)” value in series [3] is about 202 °C.

The record behind these values is US11161826B2, “Manufacturing methods and polymorphs of a thiazoline anti-hyperalgesic agent” (ACADIA PHARMACEUTICALS INC., priority 2019, dated 2021).
